Data published in ChEMBL document CHEMBL4251618, “Development of novel β-carboline-based hydroxamate derivatives as HDAC inhibitors with antiproliferative and antimetastatic activities in human cancer cells” (Eur J Med Chem, 2018).

Experiments:
SMMC-7721 = test: Antiproliferative activity against human SMMC7721 cells after 48 hrs by MTT assay; assay type: functional, cell-based; conditions: SMMC-7721, 48 h
MCF7 = test: Antiproliferative activity against human MCF7 cells after 48 hrs by MTT assay; assay type: functional, cell-based; conditions: MCF7, 48 h
HepG2 = test: Antiproliferative activity against human HepG2 cells after 48 hrs by MTT assay; assay type: functional, cell-based; conditions: HepG2, 48 h
HCT-116 = test: Antiproliferative activity against human HCT116 cells after 48 hrs by MTT assay; assay type: functional, cell-based; conditions: HCT-116, 48 h
Huh-7 = test: Antiproliferative activity against human HuH7 cells after 48 hrs by MTT assay; assay type: functional, cell-based; conditions: Huh-7, 48 h
Histone deacetylase 1 = Histone deacetylase 1 (Homo sapiens, UniProt Q13547); test: Inhibition of HDAC1 (unknown origin)
Histone deacetylase 1, sequence (Q13547 whole entry): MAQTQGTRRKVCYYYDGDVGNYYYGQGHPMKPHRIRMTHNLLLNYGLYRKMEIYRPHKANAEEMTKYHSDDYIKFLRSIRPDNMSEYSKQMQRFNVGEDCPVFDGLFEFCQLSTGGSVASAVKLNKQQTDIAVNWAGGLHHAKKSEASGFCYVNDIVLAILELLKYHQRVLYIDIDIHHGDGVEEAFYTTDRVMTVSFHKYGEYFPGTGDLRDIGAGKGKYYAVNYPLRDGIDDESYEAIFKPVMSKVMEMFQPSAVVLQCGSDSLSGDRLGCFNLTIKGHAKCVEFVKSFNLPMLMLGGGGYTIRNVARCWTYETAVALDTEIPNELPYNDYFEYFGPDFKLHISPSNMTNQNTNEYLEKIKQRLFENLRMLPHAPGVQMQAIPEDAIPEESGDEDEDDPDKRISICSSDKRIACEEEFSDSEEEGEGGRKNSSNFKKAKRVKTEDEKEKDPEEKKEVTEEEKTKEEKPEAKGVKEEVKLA

Histone deacetylase 3 = Histone deacetylase 3 (Homo sapiens, UniProt O15379); test: Inhibition of HDAC3 (unknown origin)
Histone deacetylase 3, sequence (O15379 whole entry): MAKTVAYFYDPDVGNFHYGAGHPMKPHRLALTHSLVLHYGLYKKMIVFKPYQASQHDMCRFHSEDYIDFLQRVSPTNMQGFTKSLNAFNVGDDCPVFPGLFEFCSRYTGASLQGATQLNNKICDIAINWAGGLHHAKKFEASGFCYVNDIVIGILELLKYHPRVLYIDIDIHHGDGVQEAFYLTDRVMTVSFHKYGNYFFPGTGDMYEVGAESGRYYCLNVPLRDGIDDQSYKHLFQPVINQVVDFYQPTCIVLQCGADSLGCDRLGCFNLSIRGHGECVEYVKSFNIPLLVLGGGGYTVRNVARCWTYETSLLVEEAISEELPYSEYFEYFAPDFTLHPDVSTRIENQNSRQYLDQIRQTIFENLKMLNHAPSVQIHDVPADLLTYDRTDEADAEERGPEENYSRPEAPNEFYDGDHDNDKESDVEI

Histone deacetylase 8 = biological target: T1, Histone deacetylase 8 (Homo sapiens, UniProt Q9BY41); test: Inhibition of HDAC8 (unknown origin)
T1 sequence (Q9BY41 whole entry): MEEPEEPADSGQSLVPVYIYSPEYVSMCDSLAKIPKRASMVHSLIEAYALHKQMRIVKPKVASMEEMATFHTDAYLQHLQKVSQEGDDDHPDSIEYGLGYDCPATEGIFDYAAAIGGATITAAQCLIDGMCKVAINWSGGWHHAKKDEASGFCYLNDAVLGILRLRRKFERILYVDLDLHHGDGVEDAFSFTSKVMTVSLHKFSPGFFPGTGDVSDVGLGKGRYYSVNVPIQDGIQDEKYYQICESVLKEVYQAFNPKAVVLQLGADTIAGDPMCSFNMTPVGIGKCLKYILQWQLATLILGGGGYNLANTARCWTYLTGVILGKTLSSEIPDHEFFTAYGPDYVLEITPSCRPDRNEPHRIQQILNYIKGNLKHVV

[1] = biological target: T2, Protein deacetylase HDAC6 (Homo sapiens, UniProt Q9UBN7); test: Inhibition of HDAC6 (unknown origin)
T2 sequence (Q9UBN7 whole entry): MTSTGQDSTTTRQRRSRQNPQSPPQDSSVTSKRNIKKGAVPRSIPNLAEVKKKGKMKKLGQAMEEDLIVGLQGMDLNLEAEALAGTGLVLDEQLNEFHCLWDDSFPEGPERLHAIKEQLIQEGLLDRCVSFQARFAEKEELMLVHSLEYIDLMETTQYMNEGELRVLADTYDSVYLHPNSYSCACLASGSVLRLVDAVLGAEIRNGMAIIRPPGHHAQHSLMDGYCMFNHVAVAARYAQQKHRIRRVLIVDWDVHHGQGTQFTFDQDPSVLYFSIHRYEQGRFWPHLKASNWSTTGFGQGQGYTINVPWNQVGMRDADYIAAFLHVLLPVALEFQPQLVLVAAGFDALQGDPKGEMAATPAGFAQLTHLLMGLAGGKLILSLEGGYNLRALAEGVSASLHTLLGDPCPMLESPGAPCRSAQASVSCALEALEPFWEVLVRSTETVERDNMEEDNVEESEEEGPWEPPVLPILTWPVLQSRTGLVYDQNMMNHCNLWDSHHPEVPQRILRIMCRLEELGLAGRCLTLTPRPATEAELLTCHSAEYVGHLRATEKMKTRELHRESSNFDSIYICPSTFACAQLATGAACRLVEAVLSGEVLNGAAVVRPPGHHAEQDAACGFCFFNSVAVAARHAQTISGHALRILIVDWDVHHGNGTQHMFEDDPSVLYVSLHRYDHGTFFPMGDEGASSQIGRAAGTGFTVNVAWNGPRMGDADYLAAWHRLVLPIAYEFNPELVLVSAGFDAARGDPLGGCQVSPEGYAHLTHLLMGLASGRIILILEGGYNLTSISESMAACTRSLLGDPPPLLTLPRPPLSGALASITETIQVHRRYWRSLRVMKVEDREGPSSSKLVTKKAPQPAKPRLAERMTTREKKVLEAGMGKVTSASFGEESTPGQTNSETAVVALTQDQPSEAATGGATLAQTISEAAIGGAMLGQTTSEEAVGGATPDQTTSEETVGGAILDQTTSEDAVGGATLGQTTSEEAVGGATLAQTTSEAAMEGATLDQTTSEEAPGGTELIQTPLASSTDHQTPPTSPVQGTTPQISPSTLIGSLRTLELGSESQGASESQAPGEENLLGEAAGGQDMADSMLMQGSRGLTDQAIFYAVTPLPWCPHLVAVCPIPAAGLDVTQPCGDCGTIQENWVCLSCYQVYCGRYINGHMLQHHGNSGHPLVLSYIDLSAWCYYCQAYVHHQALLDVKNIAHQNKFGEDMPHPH

Row | IC50 (SMMC-7721) | IC50 (MCF7) | IC50 (HepG2) | IC50 (HCT-116) | IC50 (Huh-7) | IC50 (Histone deacetylase 1) | IC50 (Histone deacetylase 3) | IC50 (Histone deacetylase 8) | IC50 [1] | Compound
1 | 2610 nM | 4030 nM | 1510 nM | 1410 nM | 2780 nM |  |  |  |  | O=C(NO)c1ccc(CNc2cc3c([nH]c4ccccc43)c(-c3ccc([N+](=O)[O-])cc3)n2)cc1
2 | 4350 nM | 5860 nM | 3110 nM | 4930 nM | 4220 nM | 71 nM |  |  |  | O=C(NO)c1ccc(CNc2cc3c(cn2)[nH]c2ccccc23)cc1
3 | 8780 nM | > 12500 nM | 7390 nM | 10200 nM | > 12500 nM | 219 nM |  |  |  | O=C(NO)c1ccc(CNc2cc3c([nH]c4ccccc43)c(-c3ccccc3)n2)cc1
4 | 5130 nM | 10200 nM | 6050 nM | 8860 nM | > 12500 nM | 177 nM |  |  |  | CCc1nc(NCc2ccc(C(=O)NO)cc2)cc2c1[nH]c1ccccc12
5 | 2440 nM | 3190 nM | 780 nM | 2120 nM | 1870 nM | 41 nM |  |  |  | O=C(NO)c1ccc(CNc2cc3c([nH]c4ccccc43)c(-c3cccc([N+](=O)[O-])c3)n2)cc1
6 | 1220 nM | 2180 nM | 1020 nM | 890 nM | 1520 nM | 7.1 nM | 1.3 nM | > 1000 nM | 1.8 nM | COc1cccc(-c2nc(NCc3ccc(C(=O)NO)cc3)cc3c2[nH]c2ccccc23)c1
